The subject of the assay is M. tuberculosis H37Rv growth inhibition. Put plainly: M. tuberculosis H37Rv growth inhibitors, H37Rv strain (AID 1626). The settings on record: for IC90: measured here: IC90 against H37Rv; for CC50: measured here: Vero cell cytotoxicity.

A value given as a limit tells only on which side of the number the result lay.

For `COc1cccc(C(=O)Oc2ccccc2/C=C\C(=O)c2cc3ccccc3o2)c1`, the IC50 was 3.43 µM, the IC90 amounted to 5.83 µM and the CC50 turned out to be 11.4 µM.
The like results for `CC(=O)CC1(OC(C)=O)C(=O)N(C)c2ccccc21` (stereo not given) were, in that order, 5.34 µM, 5.89 µM and 24.3 µM.
For `CCOC(=O)CC(=O)Nc1ccc(C(=O)OCC)cc1`, the IC50 was 10 µM and the IC90 is over 100 µM.
The matching figures for `O=C(CSc1nc2ccccc2o1)Nc1nc(-c2ccccc2)cs1`: 28.1 µM and over 100 µM.
As for `CC(C)NCC(O)Cn1c2c(c3ccccc31)CCc1c-2cnn1-c1ccccc1` (stereo not given), the concentration for half-maximal inhibition (IC50) is 10.1 µM, the IC90 was determined as 13.6 µM and the CC50 is 7.97 µM.
The matching figures for `CCOc1ccc(NC(=O)CN2CCN(C3c4ccccc4-c4ccccc43)CC2)cc1`: 22.2 µM, over 100 µM and over 40 µM.
With `COC(=O)COc1ccc(-c2ccc(F)cc2)cc1C=O`, the IC50 was 5.69 µM and the IC90 stood at 9.92 µM.
As to `c1ccc(CC2CCN(c3nc4ccccc4n4cnnc34)CC2)cc1`, the IC50 is 1.77 µM, the IC90 is 3.44 µM and the CC50 was over 40 µM.
Regarding `O=C(/C=C/c1ccc([N+](=O)[O-])s1)N1CCCCC1`, the 50% inhibitory concentration (IC50) was 6.4 µM, the concentration for an effect of 90% (IC90) amounted to 10.6 µM and the CC50 was over 40 µM.
The like results for `CCC(=O)Nc1nc2ccccc2n1Cc1ccccc1C` were, in that order, 1.47 µM, over 100 µM and over 40 µM.
Turning to `COc1cccc(OCCNC(=O)c2cc([N+](=O)[O-])cc([N+](=O)[O-])c2)c1`, the IC50 is under 0.195 µM and the concentration for an effect of 90% (IC90) is 0.747 µM.
For the molecule `CCc1ccc2c(c1)C1(C(=O)N2)N2CCCC2C(C(=O)c2ccc3ccccc3c2)C12C(=O)Nc1ccccc12` (stereo not given), the IC50 was 2.97 µM, the IC90 is over 100 µM and the CC50 was 17.8 µM.
Turning to `COc1ccc(N2CN=C3SCC(=O)N3C2)cc1`, the half-maximal inhibitory concentration (IC50) is 46.5 µM and the IC90 was over 100 µM.
Turning to `CC1CC(C)(C)Nc2ccc(N=O)cc21` (stereo not given), the IC50 is 5.75 µM, the IC90 stood at 6.38 µM and the CC50 was 6.76 µM.
Molecule `CC/C(=C\C(=O)c1cccnc1)Nc1ccc(C)c(C)c1` showed a CC50 of over 40 µM.
Regarding `Cc1ccc(C(C)C)c(OCc2nn(CC(=O)c3ccc(OC(F)F)cc3)c3[n+]2CCCCC3)c1`, the IC50 was 1.07 µM, the IC90 worked out at 1.46 µM and the 50% cytotoxic concentration (CC50) was over 40 µM.
The like results for `O=C(/C=C/c1cccc2ccccc12)c1ccncc1` were, in that order, 8.2 µM, 12.7 µM and over 40 µM.
As for `O=C(OCC(=O)c1c[nH]c2ccccc12)c1cc2ccccc2cc1O`, the concentration for half-maximal inhibition (IC50) was 11.3 µM, the IC90 is over 100 µM and the CC50 was over 40 µM.
With `C=CCOc1ccc(/C=N/O)cc1Cl`, the IC90 is over 100 µM.
For `O=C(Nc1ccccc1Cl)Oc1ccc2ccccc2c1`, the IC90 is over 100 µM.
Turning to `Cc1cccc(-n2c(/C=C/c3ccc([N+](=O)[O-])o3)nc3ccccc3c2=O)c1`, the IC90 was over 100 µM and the CC50 is 28.7 µM.
For `O=C(/C=C/c1cn(CC(O)CN2CCCCC2)c2ccccc12)c1ccccc1` (stereo not given), the half-inhibitory concentration (IC50) is 2.94 µM, the IC90 came to 3.34 µM and the CC50 is 29.5 µM.
Turning to `COc1ccc(/C=C/C(=O)Oc2ccc(C)c(C)c2)cc1OC`, the IC50 was 9.43 µM and the IC90 was over 100 µM.
Take `CCOC(=O)c1cnc(-n2nc(C)cc2C)nc1Nc1ccc(N(C)C)cc1`: the IC50 is under 0.195 µM, the IC90 is under 0.195 µM and the CC50 is 23.9 µM.
With `C[C@H](NC(=O)c1[nH]cnc1C(=O)Nc1ccccc1)C(=O)OC(C)(C)C`, the IC50 was 1.68 µM, the IC90 was found to be 5.62 µM and the CC50 is over 40 µM.
For `CCOC(=O)C(/C=C(\C#N)C(=O)OCC)=C(/N)N1CCN(c2ccc(Cl)cc2)CC1`, the IC50 was 11.7 µM and the 90% effect concentration (IC90) was found to be 13 µM.
For `COc1ccc(N=Cc2c(O)ccc3ccccc23)cc1`, the IC90 is over 100 µM.
With `COc1cc(/C=C/C(=O)c2ccc(F)cc2)cc(OC)c1OC`, the IC50 is 4.93 µM, the IC90 came out at 7.36 µM and the CC50 was 21.1 µM.
Take `CNc1cc(C(F)(F)F)nc(-c2ccccn2)n1`: the IC50 was 40.7 µM and the concentration for an effect of 90% (IC90) was over 100 µM.
The matching figures for `CCCOC(=O)c1ccc(NC(=O)C(=O)NCCN(CC)CC)cc1`: 53.1 µM and over 100 µM.
As to `CN(C)c1ccc(C(=O)Nc2nnc(C3=COCCO3)o2)cc1`, the IC50 is 23.5 µM, the IC90 is 26.7 µM and the CC50 was over 40 µM.
Consider `CCCCOC(=O)CSc1nc(N)c(C#N)c(-c2ccc(OC)cc2)c1C#N`, for which the IC50 is 1.14 µM and the IC90 is 2.39 µM.
In the case of `CCC(=Nc1ccccc1O)C1=C(O)CC(c2ccccc2)CC1=O` (stereo not given), the concentration for half-maximal inhibition (IC50) is 1.51 µM, the IC90 came to 1.72 µM and the CC50 was over 40 µM.
Take `CCn1c(/C=C/c2ccc([N+](=O)[O-])o2)nc2ccccc2c1=O`: the IC50 is under 0.195 µM, the IC90 was found to be 0.383 µM and the CC50 was determined as 15.6 µM.
In the case of `CC1CCCC(NC(=O)COC(=O)c2sc3ccccc3c2Cl)C1C` (stereo not given), the IC50 is 7.47 µM and the IC90 is over 100 µM.
The matching figures for `CCCC(=O)Nc1cccc(-c2nc3ccccc3c(=O)o2)c1`: 5.72 µM and 12.1 µM.
In the case of `COc1ccc(-c2nc(CN3CCCCC3c3nccn3C)c(C)o2)c(C)c1C` (stereo not given), the IC50 is 18.1 µM, the IC90 came out at 40.9 µM and the CC50 was 22 µM.
The like results for `COc1cccc(C2C3=C(N=c4s/c(=C\c5cccc(O)c5)c(=O)n42)c2ccccc2CC3)c1OC` (stereo not given) were, in that order, 8.79 µM, 13.9 µM and 23.9 µM.
For `COC(=O)C(Oc1ccc2c(-c3ccc(OC)cc3)cc(=O)oc2c1)c1ccccc1` (stereo not given), the IC50 is 15.4 µM and the IC90 came to 20.9 µM.
`Nc1ccc2c(c1)C(=O)C(=O)c1ccccc1-2`: the IC50 is 0.401 µM, the IC90 worked out at 13.5 µM and the CC50 stood at 3.16 µM.
As for `CCOC(=O)CSc1nc2c(c(-c3ccc(C)o3)c1C#N)CCCC2`, the IC50 is 2.36 µM and the IC90 turned out to be 3.53 µM.
For `CCCCCCOc1cccc(N)c1`, the IC50 was 16.9 µM and the IC90 was over 100 µM.
Turning to `Cc1cnc(NC(=O)c2cc3c(C)nn(-c4ccccc4)c3s2)s1`, the IC50 is 61 µM, the concentration for an effect of 90% (IC90) was over 100 µM and the CC50 is over 40 µM.
Consider `Nc1nc(CCOc2ccc(F)cc2)cs1`, for which the IC50 is 22.4 µM and the IC90 was over 100 µM.
For the molecule `CCCOC(=O)c1ccc(NC(=O)CCC(=O)OCC)cc1`, the IC50 is under 0.195 µM and the IC90 was over 100 µM.
With `C=CCn1c(SCc2ccc(C(=O)Nc3nccs3)cc2)nnc1-c1ccc(C)c(Cl)c1`, the IC50 is 6.82 µM, the IC90 is 17.6 µM and the CC50 came out at 32.9 µM.
Regarding `O=C(Nc1ccccc1OC(=O)c1ccc(Cl)cc1)c1ccc(Cl)cc1`, the IC50 was 12 µM and the IC90 came to 18.6 µM.
Turning to `Cc1ccc(Nc2c(-c3ccccn3)nc3cccc(C)n23)cc1`, the half-maximal inhibitory concentration (IC50) is 2.72 µM, the IC90 is 3.06 µM and the CC50 turned out to be 1.18 µM.
Consider `CCOC(=O)N1CCN(CCC(=O)Nc2ccc(C)c(Br)c2)CC1`, for which the 50% inhibitory concentration (IC50) was 6.69 µM and the IC90 came out at 26.2 µM.
In the case of `N#Cc1ccc(C(=O)Nc2nnc(-c3ccco3)o2)cc1`, the IC50 is 7.95 µM, the IC90 was over 100 µM and the CC50 was over 40 µM.
Regarding `COC(=O)CSc1nc(N)c2c3c(sc2n1)CCCC3`, the IC50 was 2.54 µM and the 90% effect concentration (IC90) came out at 4.12 µM.
The like results for `CCOc1ccc(NC(=O)CCCc2cc(-c3ccc(OCC)cc3)on2)cc1` were, in that order, 47.1 µM and over 100 µM.
Turning to `Fc1ccc(Oc2nc(-c3ccccn3)nc3ccccc23)cc1`, the IC50 was 1.96 µM, the concentration for an effect of 90% (IC90) was determined as 11.2 µM and the CC50 was over 40 µM.
For the molecule `COC(=O)CSc1nnc(-c2ccc(OC)c(OC)c2)o1`, the IC50 is 1.43 µM and the IC90 worked out at 5.53 µM.
Regarding `N=C1SCC(=O)N1c1ncc(Cc2ccc(F)cc2)s1`, the IC50 was under 0.195 µM, the IC90 was over 100 µM and the CC50 was over 40 µM.
The matching figures for `COc1ccc(/C=c2\s/c(=C\C(=O)C(C)(C)C)[nH]c2=O)cc1O`: 5.62 µM, 7.63 µM and 25.3 µM.
For the molecule `CCOC(=O)c1ccc(NCc2ccc(N(C)C)cc2)cc1`, the IC90 was over 100 µM.
In the case of `O=C(Nc1nc(-c2ccc(F)cc2)cs1)c1cnccn1`, the IC90 is over 100 µM and the CC50 was over 40 µM.
As for `CSc1ccc(C(=O)C2CCCN(Cc3cc4ccccc4[nH]3)C2)cc1` (stereo not given), the IC50 is 2.43 µM, the IC90 came out at 2.98 µM and the CC50 was over 40 µM.
Take `CCN(CC)Cc1nc2c(c(=O)[nH]1)C1(CCCCC1)Cc1ccccc1-2`: the IC50 is 6.77 µM and the IC90 was over 100 µM.
Regarding `O=C(Oc1ccc2ccc(O)cc2c1)C1CCCCC1`, the IC90 was over 100 µM.
As to `CN1CCN(c2nc(-c3ccccc3)nc3c2oc2ccccc23)CC1`, the IC50 is 5.55 µM, the IC90 was found to be 10.5 µM and the CC50 stood at 30 µM.
The like results for `NS(=O)(=O)c1ccc(CCNc2ncnc3c2c(-c2ccccc2)cn3-c2ccc(F)cc2)cc1` were, in that order, 5.77 µM, 6.76 µM and over 40 µM.
As for `CCOC(=O)C(C)Sc1ncnc2c1nnn2-c1ccc(F)cc1` (stereo not given), the IC50 is 2.47 µM and the IC90 amounted to 21.6 µM.
With `CSc1ccc(/C=C/C(=O)c2ccc(O)cc2)cc1`, the IC50 was 9.87 µM, the IC90 amounted to 13.7 µM and the cytotoxic concentration (CC50) is 30.7 µM.
The molecule `COc1ccc(OCCn2c(NC(=O)c3ccco3)nc3ccccc32)cc1` returned an IC90 of over 100 µM and a CC50 of 33.2 µM.
In turn, `Oc1cnn(-c2ccccc2)c1` displayed an IC90 of over 100 µM.

For the origin of these results see PubChem BioAssay AID1626 (SRMLSC, 2009).
